{"source": "patent US8440638B2", "about": "“Compositions and methods for modulating calcium flux, glucose homeostasis and apoptosis” (Wisconsin Alumni Research Foundation, priority 2004, dated 2013)", "key": {"[1]": {"system": "TRPM2-expressing HEK-293 cells", "assay": "Cell viability assay (calcein fluorescence), tet-inducible TRPM2 HEK-293 cells", "assay_type": "cell-based", "protocol": "Shown are HEK-293 cells (closed diamond) and HEK-293 cells stably transfected with a tet-controlled TRPM2 construct in the presence (open squares) or absence of (open diamonds) tetracycline. […] TRPM2-expressing HEK-293 cells were grown in complete DMEM media and 1 μg/ml tetracycline until 80-90% confluent. One set of cells were re-fed with the same complete media (closed diamonds) and the other set of cells were rinsed with PBS and fed with modified media containing 1 μg/ml tetracycline, 5 mM EGTA and without calcium chloride (open squares). […] HEK-293 (close diamond) and TRPM2 expressing HEK-293 cells in the absence (open diamond) or presence of (closed square) tetracycline were exposed to 0-10 μg/ml cycloheximide for 16 h. Cell viability was determined as described in (a).\nTRPM2-expressing HEK-293 cells were exposed to 0-50 μM puromycin for 16 h in the presence (open diamond) or absence (closed diamond) of 500 μM nicotinamide. […] TRPM2-expressing HEK-293 cells were exposed to 0-50 μM puromycin for 16 h in the presence (open diamond) or absence (closed diamond) of 1.5 mM 3-aminobenzamide. Cell survival was determined as described in (a).\nHEK-293 and tetracycline (tet)-inducible HEK-293 TRPM2-expressing cells (23) were cultured in DMEM and 10% FBS at 37° C., 5% CO2. Media used to culture tet-inducible HEK-293 cells was supplemented with blasticidin (5 μg ml^−1; Invitrogen) and zeocin (0.4 mg/ml; Invitrogen). To induce expression of TRPM2 in recombinant HEK-293 cells, tetracycline was added to the media at 1 μg ml^−1 (Invitrogen) 24 h prior to experiments. The CRI-G1 rat β-islet tumor cell line was obtained from EACC and cultured in DMEM, 10% FBS and 2 mM glutamine.\nHEK-293, tet-inducible HEK-293, and CRI-G1 cells were seeded into 6 well plates at a density of 500,000 cells per well. When cells were 50-70% confluent, puromycin was added to the media at various concentrations for 16 hours. Cell monolayers were rinsed with PBS, after which 0.5 ml of 2 μM calcein in PBS was added directly to the well for 10-20 minutes. Calcein is retained in living, but not dead cells, where it undergoes catalytic conversion into a fluorescent compound Fluorescence in each well was measured in a microplate reader using excitation and emission filters at 485/530 nm, respectively."}, "CRI-G1 cells": {"system": "CRI-G1 cells", "assay": "Cell viability assay (calcein fluorescence), CRI-G1 cells", "assay_type": "cell-based, rat", "conditions": "0.5-20 mM nicotinamide, 20 μM puromycin, 16 h", "protocol": "FIG. 4 a) OAADPr gates the endogenous TRPM2 channel in CRI-G1 cells. Left panel: Evolution of currents in CRI-G1 cells in the absence (grey squares) or presence (black circles) of OAADPr (120-250 μM). Shown are average leak subtracted currents from n=3 cells for each condition. Right panel: Representative leak subtracted whole cell I/V curves for peak currents observed in the absence (grey line) and presence (black line) of OAADPr. For the above measurements, CRI-G1 cells were maintained in the whole cell patch clamp configuration as previously described for HEK-293 cells (44). b) Puromycin leads to cell death in CRI-G1 cells. CRI-G1 cells were treated with 0-40 μM puromycin for 16 h. Cell viability was assessed by measuring fluorescence of calcein in live cells. Data obtained from 4 independent experiments were plotted as a percent change in fluorescence compared to those of untreated cells set at a 100%. Error bars indicate the standard deviation from the mean. (Inset) Nicotinamide rescues puromycin-induced death in CRI-G1 cells. […] Cell viability was assessed 16 h later as described above. […] Calcein is retained in living, but not dead cells, where it undergoes catalytic conversion into a fluorescent compound Fluorescence in each well was measured in a microplate reader using excitation and emission filters at 485/530 nm, respectively."}, "Sir2 homologs": {"system": "Sir2 homologs", "assay": "NAD+-dependent histone deacetylase activity of HEK-293 protein extracts", "assay_type": "biochemical", "conditions": "data not shown"}, "[2]": {"system": "insulin-producing β-cells", "conditions": "prophylactic treatment; alloxan and streptozotocin models (ref. 48); cited from earlier work"}, "TRPM2 channel": {"biological_target": "T1, TRPM2 channel (Homo sapiens, UniProt O94759)", "T1 construct": "expressed in transfected cells; host or cells: tetracycline-inducible HEK-293", "T1 sequence (O94759 whole entry)": "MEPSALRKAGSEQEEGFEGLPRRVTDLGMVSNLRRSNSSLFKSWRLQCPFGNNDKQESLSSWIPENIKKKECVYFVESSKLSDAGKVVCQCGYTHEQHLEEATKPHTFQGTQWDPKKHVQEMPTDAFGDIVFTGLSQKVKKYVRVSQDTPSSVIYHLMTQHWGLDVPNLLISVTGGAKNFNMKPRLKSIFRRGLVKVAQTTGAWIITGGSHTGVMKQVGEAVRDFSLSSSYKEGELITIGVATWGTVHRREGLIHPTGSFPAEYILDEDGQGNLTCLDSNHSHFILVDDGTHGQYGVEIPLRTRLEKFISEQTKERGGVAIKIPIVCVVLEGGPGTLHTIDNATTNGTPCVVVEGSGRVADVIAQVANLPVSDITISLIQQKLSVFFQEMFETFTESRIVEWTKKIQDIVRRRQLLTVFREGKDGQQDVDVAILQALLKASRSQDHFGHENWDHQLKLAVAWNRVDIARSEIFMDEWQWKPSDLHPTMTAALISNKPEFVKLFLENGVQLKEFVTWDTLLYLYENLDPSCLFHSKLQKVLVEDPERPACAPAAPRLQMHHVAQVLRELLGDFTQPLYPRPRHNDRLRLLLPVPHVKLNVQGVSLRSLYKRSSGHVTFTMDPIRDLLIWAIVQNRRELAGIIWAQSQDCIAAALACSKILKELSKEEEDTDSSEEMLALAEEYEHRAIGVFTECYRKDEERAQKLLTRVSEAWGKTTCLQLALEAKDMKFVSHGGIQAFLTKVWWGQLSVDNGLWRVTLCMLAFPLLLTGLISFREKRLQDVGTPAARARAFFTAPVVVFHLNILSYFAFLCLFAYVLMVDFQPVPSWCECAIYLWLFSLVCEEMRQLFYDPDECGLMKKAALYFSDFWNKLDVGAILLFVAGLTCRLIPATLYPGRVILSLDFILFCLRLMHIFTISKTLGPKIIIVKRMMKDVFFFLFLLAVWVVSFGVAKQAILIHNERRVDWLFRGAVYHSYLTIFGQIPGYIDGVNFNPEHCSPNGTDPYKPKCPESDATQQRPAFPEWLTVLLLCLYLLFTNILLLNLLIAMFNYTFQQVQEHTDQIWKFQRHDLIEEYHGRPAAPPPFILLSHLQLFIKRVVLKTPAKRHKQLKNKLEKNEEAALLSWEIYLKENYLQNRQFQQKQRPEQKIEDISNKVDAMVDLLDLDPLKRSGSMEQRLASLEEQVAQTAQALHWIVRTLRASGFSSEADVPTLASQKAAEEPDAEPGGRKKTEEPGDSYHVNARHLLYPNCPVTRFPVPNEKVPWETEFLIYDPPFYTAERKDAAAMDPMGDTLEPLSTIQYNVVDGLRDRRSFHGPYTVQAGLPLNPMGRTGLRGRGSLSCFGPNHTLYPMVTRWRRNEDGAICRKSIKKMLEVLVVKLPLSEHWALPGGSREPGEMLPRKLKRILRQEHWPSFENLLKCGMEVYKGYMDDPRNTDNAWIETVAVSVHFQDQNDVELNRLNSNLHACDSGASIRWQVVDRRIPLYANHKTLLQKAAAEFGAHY", "assay": "Whole cell patch clamp, TRPM2 channel gating in tet-induced TRPM2-expressing HEK-293 cells", "assay_type": "cell-based", "conditions": "OAADPr in patch pipette solution; similar kinetics and dose dependence to ADP-ribose", "protocol": "Shown is the development of whole cell currents over time in TRPM2-expressing HEK-293 cells. Bath solution was standard ringer's, and pipette solution was Cs-based and included 10 mM EGTA to buffer intracellular Ca^2+ to 10 nM. The patch pipette contained various concentrations of (FIG. 1a) ADPr, (FIG. 1b) OAADPr (FIG. 1c) OAADPr and puromycin as indicated in the figure. FIG. 1d.) Cytoplasmic OAADPr esterase activity is inhibited by puromycin. 200 μM O-[^3H]AADPr and 0-100 μM puromycin were added to cytoplasmic HEK-293 extract for 30 min. Percent hydrolysis of O-[^3H]AADPr to [^3H]acetate was measured as described hereinbelow. FIG. 1e.) Nuclear OAADPr acetyltransferase activity is not inhibited by puromycin. HEK-293 nuclear extract was incubated with 200 μM O-[^3H]AADPr in the presence or absence of 100 μM puromycin for 60 min. The reactions were quenched and resolved by HPLC. The radioactivity in collected fractions was determined by liquid scintillation counting. FIGS. 1f-g.) In vivo detection of OAADPr. Mass spectrum of HEK-293 generated OAADPr (peak m/z of 602.0894; the theoretical m/z for OAADPr is 602.0895) after puromycin treatment, with authentic [^13C]-OAADPr (peak m/z of 603.0851 and isotopic distribution of 604.0878 and 605.0928) as a standard. Peak 599.3691 is from the matrix.\nPatch clamp electrophysiology was performed as previously described (23). Briefly, cells were patch clamped in the whole cell configuration at 25° C. using pipettes with resistances ranging from 2-3 MOhms. Currents were recorded on an EPC9 patch clamp amplifier with automatic capacitance compensation using a protocol generating a 50 msec voltage ramp from −100 to +100 mv every two seconds at a holding potential of 0 mv (appropriately corrected for liquid junction potential). Bath solution included 150 mM NaCl, 2.8 mM KCl, 5 mM CsCl, 1 mM CaCl2, 2 mM MgCl2, and 10 mM Hepes (pH 7.2). Pipette solution included 135 mM CsGlutamate, 1 mM MgCl2, 8 mM NaCl, 10 mM Hepes (pH 7.2), and 10 mM EGTA. […]"}, "endogenous TRPM2 channel": {"biological_target": "T2, endogenous TRPM2 channel (Rattus norvegicus, UniProt E9PTA2)", "T2 construct": "direct OAADPr-mediated gating of endogenous TRPM2 channels in CRI-G1 cells; endogenous in cells; host or cells: CRI-G1 rat beta-islet tumor cell line", "T2 sequence (E9PTA2 whole entry)": "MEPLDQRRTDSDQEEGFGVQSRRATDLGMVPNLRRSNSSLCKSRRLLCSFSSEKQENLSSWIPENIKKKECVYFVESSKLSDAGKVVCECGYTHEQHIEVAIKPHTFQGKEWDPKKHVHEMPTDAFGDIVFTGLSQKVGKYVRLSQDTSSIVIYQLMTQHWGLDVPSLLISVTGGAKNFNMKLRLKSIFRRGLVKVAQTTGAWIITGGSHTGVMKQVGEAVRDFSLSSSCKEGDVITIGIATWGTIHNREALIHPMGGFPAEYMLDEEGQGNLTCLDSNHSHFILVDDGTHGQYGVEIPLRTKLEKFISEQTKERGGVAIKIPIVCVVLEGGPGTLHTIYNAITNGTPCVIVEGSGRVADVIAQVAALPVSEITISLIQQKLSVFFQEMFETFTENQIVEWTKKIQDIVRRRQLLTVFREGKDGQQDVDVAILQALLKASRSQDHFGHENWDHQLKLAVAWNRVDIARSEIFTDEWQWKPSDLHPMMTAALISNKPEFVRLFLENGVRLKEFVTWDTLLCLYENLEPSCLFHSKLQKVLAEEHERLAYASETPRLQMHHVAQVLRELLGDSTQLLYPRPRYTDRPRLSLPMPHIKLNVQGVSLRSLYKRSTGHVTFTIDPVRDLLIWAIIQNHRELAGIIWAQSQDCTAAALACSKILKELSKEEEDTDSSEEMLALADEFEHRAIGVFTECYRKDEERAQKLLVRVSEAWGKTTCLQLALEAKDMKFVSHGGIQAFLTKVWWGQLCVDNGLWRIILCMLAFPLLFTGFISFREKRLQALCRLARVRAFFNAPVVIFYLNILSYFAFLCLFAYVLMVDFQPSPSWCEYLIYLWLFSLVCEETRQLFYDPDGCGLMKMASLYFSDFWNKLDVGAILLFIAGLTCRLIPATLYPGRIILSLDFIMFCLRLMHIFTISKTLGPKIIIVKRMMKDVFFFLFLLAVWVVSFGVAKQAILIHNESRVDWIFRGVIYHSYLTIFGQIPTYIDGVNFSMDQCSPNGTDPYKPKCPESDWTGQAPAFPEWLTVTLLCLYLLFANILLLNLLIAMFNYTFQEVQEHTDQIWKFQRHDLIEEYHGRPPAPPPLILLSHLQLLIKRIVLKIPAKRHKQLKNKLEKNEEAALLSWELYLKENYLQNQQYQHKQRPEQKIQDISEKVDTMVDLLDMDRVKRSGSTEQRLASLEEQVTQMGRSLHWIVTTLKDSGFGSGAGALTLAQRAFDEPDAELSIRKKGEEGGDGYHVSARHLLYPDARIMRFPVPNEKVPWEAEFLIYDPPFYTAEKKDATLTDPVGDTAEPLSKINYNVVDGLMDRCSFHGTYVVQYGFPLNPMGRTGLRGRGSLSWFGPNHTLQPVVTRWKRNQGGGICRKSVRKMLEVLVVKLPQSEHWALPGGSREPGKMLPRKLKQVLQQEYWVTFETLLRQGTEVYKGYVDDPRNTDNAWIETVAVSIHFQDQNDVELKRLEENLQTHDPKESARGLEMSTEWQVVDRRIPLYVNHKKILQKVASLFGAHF", "assay": "Whole cell patch clamp, endogenous TRPM2 channel in CRI-G1 cells", "assay_type": "cell-based", "conditions": "OAADPr 120-250 μM in patch pipette, n=3 cells", "protocol": "FIG. 4 a) OAADPr gates the endogenous TRPM2 channel in CRI-G1 cells. Left panel: Evolution of currents in CRI-G1 cells in the absence (grey squares) or presence (black circles) of OAADPr (120-250 μM). Shown are average leak subtracted currents from n=3 cells for each condition. Right panel: Representative leak subtracted whole cell I/V curves for peak currents observed in the absence (grey line) and presence (black line) of OAADPr. For the above measurements, CRI-G1 cells were maintained in the whole cell patch clamp configuration as previously described for HEK-293 cells (44). b) Puromycin leads to cell death in CRI-G1 cells. CRI-G1 cells were treated with 0-40 μM puromycin for 16 h. Cell viability was assessed by measuring fluorescence of calcein in live cells. Data obtained from 4 independent experiments were plotted as a percent change in fluorescence compared to those of untreated cells set at a 100%. Error bars indicate the standard deviation from the mean. […] Cell viability was assessed 16 h later as described above. […]\nPatch clamp electrophysiology was performed as previously described (23). […] Currents were recorded on an EPC9 patch clamp amplifier with automatic capacitance compensation using a protocol generating a 50 msec voltage ramp from −100 to +100 mv every two seconds at a holding potential of 0 mv (appropriately corrected for liquid junction potential). […]"}, "[3]": {"assay": "Spontaneous breakdown of OAADPr in the patch pipette", "assay_type": "physicochemical", "conditions": "multiple experiments", "protocol": "Patch clamp electrophysiology was performed as previously described (23). Briefly, cells were patch clamped in the whole cell configuration at 25° C. using pipettes with resistances ranging from 2-3 MOhms. Currents were recorded on an EPC9 patch clamp amplifier with automatic capacitance compensation using a protocol generating a 50 msec voltage ramp from −100 to +100 mv every two seconds at a holding potential of 0 mv (appropriately corrected for liquid junction potential). Bath solution included 150 mM NaCl, 2.8 mM KCl, 5 mM CsCl, 1 mM CaCl2, 2 mM MgCl2, and 10 mM Hepes (pH 7.2). Pipette solution included 135 mM CsGlutamate, 1 mM MgCl2, 8 mM NaCl, 10 mM Hepes (pH 7.2), and 10 mM EGTA. For low-resolution presentation of current development over the course of the experiment, instantaneous currents at −80 mv were extracted from each ramp and plotted versus time."}}}
{"compound": "NC(=O)c1cccnc1", "note": "[nicotinamide]", "values": [{"measurement": "protection from puromycin-induced cell death at high puromycin", "setting": "[1]; 500 μM nicotinamide, 50 μM puromycin", "value": "suppressed"}, {"measurement": "protection from puromycin-induced cell death", "setting": "[1]; 500 μM nicotinamide, up to 20 μM puromycin, 16 h", "value": "completely protect"}, {"measurement": "effect on puromycin-induced death of CRI-G1 cells", "setting": "CRI-G1 cells", "value": "blocked"}, {"measurement": "NAD+-dependent histone deacetylase activity of protein extracts", "setting": "Sir2 homologs", "value": "inhibited"}, {"measurement": "development of diabetes", "setting": "[2]", "value": "suppress the development of diabetes"}]}
{"compound": "O-acetyl-ADP ribose [OAADPr]", "values": [{"measurement": "TRPM2 gating in whole cell recordings", "setting": "TRPM2 channel", "value": "induces TRPM2 gating"}, {"measurement": "average currents induced", "setting": "endogenous TRPM2 channel", "value": "~2", "unit": "nA"}, {"measurement": "spontaneous breakdown of OAADPr to ADPr in the patch pipette", "setting": "[3]", "value": "5-10%"}]}
{"compound": "NC(=O)c1cccc(N)c1", "note": "[3-aminobenzamide]", "values": [{"measurement": "effect on puromycin-induced cell death", "setting": "[1]; 1.5 mM 3-aminobenzamide, 0-50 μM puromycin, 16 h", "value": "no effect"}]}
{"compound": "C[C@@H]1C[C@@H]([C@H](O)CC2CC(=O)NC(=O)C2)C(=O)[C@@H](C)C1", "note": "[cycloheximide]", "values": [{"measurement": "sensitivity of TRPM2 expressing cells to cycloheximide vs cells not over-expressing the channel", "setting": "[1]; 0-10 μg/ml cycloheximide, 16 h", "value": "no significant increased sensitivity"}]}
